Experimental findings from article PMC8151732, “Thiazole–Chalcone Hybrids as Prospective Antitubercular and Antiproliferative Agents: Design, Synthesis, Biological, Molecular Docking Studies and In Silico ADME Evaluation” (Molecules, 2021) are described below.

Data set [1] relates to prostate cancer cell line (DU-145). Nature of the data set: Antiproliferative activity, MTT assay. The settings on record: mean ± SD (n = 3), converted from µg/mL. On the technique in general: Formazan colour is commonly taken as a measure of viable cells.
Procedure: (§1) In both the assays, the IC50 values of the tested compounds were compared with the positive control Methotrexate (Mtx). The reduction of the soluble MTT to blue-color formazan is the principle underlined in MTT assay and such change is chiefly due to the action of intracellular mitochondrial reductase in the living cells. […] Later, the desired concentrations of the compounds were achieved by dissolving in sterile water. The cells were transferred on to 96-well plates at 100 µL total volume and with a density of 1 × 10^4 cells per well. The cells were permitted to adhere for a period of 24 h and then the assay medium was replaced with a fresh medium containing target compounds and incubated in DMEM with 10% fetal bovine serum (FBS) medium at 37 °C for an additional 48 h. Later, the medium was replaced with 90 μL of fresh DMEM without FBS. The above wells were treated with 10 μL of MTT reagent (5 mg/mL of stock solution in DMEM without FBS) and incubated for 3–4 h at 37 °C. The formed blue formazan crystals were dissolved in 200 μL of DMSO. The optical density was then determined at 570 nm using a micro plate reader. The assay was executed in triplicate for three independent experiments. […] The IC50 values measured in µg/mL for the antiproliferative were converted and expressed in µM. Additionally, all the compounds were also assessed for their cytotoxic activity on the normal human liver cell lines (L02) using the same protocol discussed above.
The subject of data set [2] is normal human liver cell lines (L02). Nature of the data set: Cytotoxic activity on normal cells, MTT assay. The class given is cell-based. The settings on record: for IC50: Homo sapiens, same protocol as DU-145, read-out: Normal Liver Cell Line (L02) (IC50 in µg/mL).
Procedure: as §1
Data set [3] relates to Mycobacterium tuberculosis H37Rv strain. Kind of data set: Antitubercular activity, broth dilution MIC. The class given is cell-based. The following applies: for MIC: Mycobacterium tuberculosis, H37RV, 504 h, read-out: Mtb (H37Rv Strain) (MIC in µM); for MIC / Mtb (H37Rv Strain) (MIC in µM): broth dilution, 21 days at 37 °C, mean of three independent experiments, converted from µg/mL; for antitubercular activity of F compounds over the Cl-containing compounds: MIC 20.68 µM (9, 11) vs. 78.46 µM (1, 3); for antitubercular potency relative to the standard pyrazinamide: ratio of MICs, pyrazinamide MIC 25.34 ± 2 µM. On the technique in general: In broth dilution the organism is exposed to a series of concentrations in liquid medium.

Where [4] appears, read: Homo sapiens, DU-145, 48 h, read-out: Prostate Cancer Cell Line (DU-145) (IC50 in µM), MTT, 48 h.
Setting [5] is: read-out: Prostate Cancer Cell Line (DU-145) (IC50 in µM), MTT, 48 h.

The term melting point denotes the temperature of the solid-liquid transition. One may read the MIC as the lowest concentration found to suppress growth.

Converted amounts (≈) assume the structure as drawn. Where two headings read alike, the source gives them in different places.

Consider `O=C(/C=C/c1sc(Cl)nc1Cl)c1ccccc1Cl` [Compound 1, (E)-1-(2-chlorophenyl)-3-(2,4-dichlorothiazol-5-yl)prop-2-en-1-one], for which the melting point was determined as 80 °C. In data set [1] (setting [4]), the IC50 stood at 100 ± 2 µM. In addition, the IC50 in data set [2] was greater than 70 µg/mL. In data set [3], the MIC is 78.5 ± 1 µM (≈ 25 µg/mL).

For `O=C(/C=C/c1sc(Cl)nc1Cl)c1cccc(Cl)c1` [Compound 2, (E)-1-(3-chlorophenyl)-3-(2,4-dichlorothiazol-5-yl)prop-2-en-1-one], the melting point worked out at 88 °C. The IC50 in data set [1] (setting [4]) was 1607 ± 2 µM. For the same compound, in data set [2], the IC50 was greater than 70 µg/mL. In addition, the MIC in data set [3] worked out at 313.9 ± 1 µM (≈ 100 µg/mL).

As to `O=C(/C=C/c1sc(Cl)nc1Cl)c1ccc(Cl)cc1` [Compound 3, (E)-1-(4-chlorophenyl)-3-(2,4-dichlorothiazol-5-yl)prop-2-en-1-one], the melting point was found to be 104 °C. In data set [1] (setting [4]), the IC50 was 401.8 ± 1 µM. The IC50 in data set [2] is greater than 70 µg/mL. The MIC in data set [3] came to 78.5 ± 1 µM (≈ 25 µg/mL).

For the compound `O=C(/C=C/c1sc(Cl)nc1Cl)c1cccc(Cl)c1Cl` [Compound 4, (E)-1-(2,3-dichlorophenyl)-3-(2,4-dichlorothiazol-5-yl)prop-2-en-1-one], the melting point amounted to 89 °C. Moreover, in data set [1] (setting [4]), the IC50 is 181.3 ± 1 µM. Also, in data set [2], the IC50 was greater than 70 µg/mL. The MIC in data set [3] was found to be 142 ± 2 µM (≈ 50 µg/mL).

`O=C(/C=C/c1sc(Cl)nc1Cl)c1cc(Cl)ccc1Cl` [Compound 6, (E)-1-(2,5-dichlorophenyl)-3-(2,4-dichlorothiazol-5-yl)prop-2-en-1-one] registered a melting point of 84 °C. Also, the IC50 in data set [1] (setting [4]) was 2900.5 ± 2 µM. Besides, the IC50 in data set [2] was greater than 70 µg/mL. Besides, the minimal inhibitory concentration (MIC) in data set [3] was found to be 141.6 ± 1 µM (≈ 50 µg/mL).

For the compound `O=C(/C=C/c1sc(Cl)nc1Cl)c1ccc(Cl)c(Cl)c1` [Compound 8, (E)-1-(3,4-dichlorophenyl)-3-(2,4-dichlorothiazol-5-yl)prop-2-en-1-one], the melting point turned out to be 106 °C. The IC50 in data set [1] (setting [4]) was determined as 1450.3 ± 1 µM. In data set [2], the IC50 is greater than 70 µg/mL. Further, in data set [3], the minimum inhibitory concentration (MIC) stood at 141.6 ± 1 µM (≈ 50 µg/mL).

`O=C(/C=C/c1sc(Cl)nc1Cl)c1ccccc1F` [Compound 9, (E)-1-(2-fluorophenyl)-3-(2,4-dichlorothiazol-5-yl)prop-2-en-1-one] returned a melting point of 91 °C. The IC50 in data set [1] (setting [4]) is 53 ± 2 µM. For the same compound, in data set [2], the IC50 was greater than 70 µg/mL. For the same compound, in data set [3], the “antitubercular activity of F compounds over the Cl-containing compounds” value is on record as 3.79 fold and the MIC stood at 20.7 ± 2 µM (≈ 6.25 µg/mL).

In turn, `O=C(/C=C/c1sc(Cl)nc1Cl)c1cccc(F)c1` [Compound 10, (E)-1-(3-fluorophenyl)-3-(2,4-dichlorothiazol-5-yl)prop-2-en-1-one] came in with a melting point of 112 °C. Also, the IC50 in data set [1] (setting [4]) came to 423.6 ± 2 µM. In addition, the IC50 in data set [1] (setting [5]) worked out at 847.3 ± 2 µM. Besides, in data set [2], the IC50 was greater than 70 µg/mL. For the same compound, the minimal inhibitory concentration (MIC) in data set [3] came to 165.5 ± 1 µM (≈ 50 µg/mL).

For `O=C(/C=C/c1sc(Cl)nc1Cl)c1ccc(F)cc1` [Compound 11, (E)-1-(4-fluorophenyl)-3-(2,4-dichlorothiazol-5-yl)prop-2-en-1-one], the melting point is 126 °C. In data set [1] (setting [4]), the IC50 is 847.3 ± 2 µM. Moreover, the IC50 in data set [1] (setting [5]) came out at 423.6 ± 2 µM. Also, in data set [2], the IC50 was greater than 70 µg/mL. For the same compound, in data set [3], the “antitubercular activity of F compounds over the Cl-containing compounds” value amounted to 3.79 fold, the MIC came to 20.7 ± 2 µM (≈ 6.25 µg/mL) and the “Mtb (H37Rv Strain) (MIC in µM)” value came to 20.68 ± 1 µM.

On to `O=C(/C=C/c1sc(Cl)nc1Cl)c1ccc(F)cc1F` [Compound 12, (E)-1-(2,4-difluorophenyl)-3-(2,4-dichlorothiazol-5-yl)prop-2-en-1-one], for which the melting point worked out at 134 °C. Further, the IC50 in data set [1] (setting [4]) is 100 ± 1 µM. For the same compound, the IC50 in data set [2] is greater than 70 µg/mL. In data set [3], the MIC was 2.43 µM (≈ 0.778 µg/mL), the “Mtb (H37Rv Strain) (MIC in µM)” value is recorded as 2.43 ± 1 µM and the “antitubercular potency relative to the standard pyrazinamide” value worked out at 10.42 times.

`O=C(/C=C/c1sc(Cl)nc1Cl)c1cc(F)ccc1F` [Compound 13, (E)-1-(2,5-difluorophenyl)-3-(2,4-dichlorothiazol-5-yl)prop-2-en-1-one] yielded a melting point of 129 °C. Also, in data set [1] (setting [4]), the IC50 turned out to be 3198.7 ± 2 µM. Moreover, the IC50 in data set [2] is greater than 70 µg/mL. For the same compound, the minimal inhibitory concentration (MIC) in data set [3] came to 39 ± 1 µM (≈ 12.5 µg/mL).

As to `O=C(/C=C/c1sc(Cl)nc1Cl)c1c(F)cccc1F` [Compound 14, (E)-1-(2,6-difluorophenyl)-3-(2,4-dichlorothiazol-5-yl)prop-2-en-1-one], the melting point is 141 °C. For the same compound, the IC50 in data set [1] (setting [4]) is 25 ± 2 µM. In addition, the IC50 in data set [2] was greater than 70 µg/mL. For the same compound, in data set [3], the minimal inhibitory concentration (MIC) came to 9.74 ± 2 µM (≈ 3.12 µg/mL) and the “antitubercular potency relative to the standard pyrazinamide” value is 2.6 times.

Take `O=C(/C=C/c1sc(Cl)nc1Cl)c1ccc(F)c(F)c1` [Compound 15, (E)-1-(3,4-difluorophenyl)-3-(2,4-dichlorothiazol-5-yl)prop-2-en-1-one]: the melting point worked out at 145 °C. For the same compound, in data set [1] (setting [4]), the IC50 worked out at 799.7 ± 1 µM. For the same compound, the IC50 in data set [2] is greater than 70 µg/mL. For the same compound, the minimum inhibitory concentration (MIC) in data set [3] came to 39 ± 1 µM (≈ 12.5 µg/mL).

In turn, `O=C(/C=C/c1sc(Cl)nc1Cl)c1cc(F)cc(F)c1` [Compound 16, (E)-1-(3,5-difluorophenyl)-3-(2,4-dichlorothiazol-5-yl)prop-2-en-1-one] came in with a melting point of 109 °C. Also, the IC50 in data set [1] (setting [4]) is 3198.7 ± 1 µM. In addition, the IC50 in data set [2] was greater than 70 µg/mL. Further, in data set [3], the MIC stood at 156 ± 2 µM (≈ 50 µg/mL).

`O=C(/C=C/c1sc(Cl)nc1Cl)c1ccccn1` [Compound 17, (E)-3-(2,4-dichlorothiazol-5-yl)-1-(pyridin-2-yl)prop-2-en-1-one]: the melting point amounted to 156 °C. Moreover, in data set [1] (setting [4]), the IC50 was found to be 14 ± 1 µM. For the same compound, the IC50 in data set [2] was greater than 70 µg/mL. Further, the MIC in data set [3] is 350.7 ± 2 µM (≈ 100 µg/mL).

`O=C(/C=C/c1sc(Cl)nc1Cl)c1cccnc1` [Compound 18, (E)-3-(2,4-dichlorothiazol-5-yl)-1-(pyridin-3-yl)prop-2-en-1-one] had a melting point of 162 °C. The IC50 in data set [1] (setting [4]) turned out to be 28.1 ± 1 µM. The IC50 in data set [2] was greater than 70 µg/mL. For the same compound, the MIC in data set [3] stood at 701.4 ± 1 µM (≈ 200 µg/mL).

`O=C(/C=C/c1sc(Cl)nc1Cl)c1ccncc1` [Compound 19, (E)-3-(2,4-dichlorothiazol-5-yl)-1-(pyridin-4-yl)prop-2-en-1-one] gave a melting point of 177 °C. For the same compound, the IC50 in data set [1] (setting [4]) was found to be 14 ± 1 µM. In addition, in data set [2], the IC50 was greater than 70 µg/mL. In data set [3], the MIC was determined as 350.7 ± 2 µM (≈ 100 µg/mL).

The compound `O=C(/C=C/c1sc(Cl)nc1Cl)c1nccs1` [Compound 20, (E)-3-(2,4-dichlorothiazol-5-yl)-1-(thiazol-2-yl)prop-2-en-1-one] registered a melting point of 127 °C. Further, the IC50 in data set [1] (setting [4]) is 6.86 ± 1 µM. Also, the IC50 in data set [2] is greater than 70 µg/mL. Moreover, the minimal inhibitory concentration (MIC) in data set [3] amounted to 343.4 ± 1 µM (≈ 100 µg/mL).

Regarding `CN(Cc1cnc2nc(N)nc(N)c2n1)c1ccc(C(=O)N[C@@H](CCC(=O)O)C(=O)O)cc1` [Methotrexate, reference compound], the figures for the IC50 in data set [1] (setting [4]) and in data set [2] were 11 ± 1 µM and greater than 70 µg/mL, respectively.

For `NC(=O)c1cnccn1` [Pyrazinamide, reference compound], in data set [3], the minimal inhibitory concentration (MIC) is 25.3 µM (≈ 3.12 µg/mL) and the “Mtb (H37Rv Strain) (MIC in µM)” value was found to be 25.34 ± 2 µM.

Take “(E)-1-(2,4-dichlorophenyl)-3-(2,4-dichlorothiazol-5-yl)prop-2-en-1-one [Compound 5]”: the IC50 in data set [1] (setting [5]) came to 90.6 ± 1 µM. Besides, the “Normal Liver Cell Line (L02) (IC50 in µg/mL)” value in data set [2] (same protocol as DU-145) is on record as greater than 70 µg/mL. Further, in data set [3], the “Mtb (H37Rv Strain) (MIC in µM)” value turned out to be 35.40 ± 2 µM.
